Assay results as given in US20050209157A1, “Short bioactive peptides and methods for their use” (priority 2001, published 2005).
No end group written: not given here.

How the values were obtained:
S. aureus (MRSA) = type: cell-based, Staphylococcus aureus; conditions: Table 15, strain SAP0017; in µg/mL
S. epidermidis C621 = type: cell-based, Staphylococcus epidermidis; conditions: Table 15
E. coli UB1005 = type: cell-based, Escherichia coli; conditions: Table 14
S. typhimurium 14028S = type: cell-based, Salmonella typhimurium; conditions: Table 14
P. aeruginosa H374 = type: cell-based, Pseudomonas aeruginosa; conditions: Table 14; in µg/mL
[1] = tested on: Pseudomonas aeruginosa H187; type: cell-based; conditions: Table 15; in µg/mL
Candida albicans 105 = type: cell-based; conditions: Table 15; in µg/mL

Substance	MIC S. aureus SAP0017 (S. aureus (MRSA))	MIC S. epidermidis C621 (S. epidermidis C621) [µg/mL]	MIC E. coli UB1005 (E. coli UB1005) [µg/mL]	MIC S. typhimurium 14028S (S. typhimurium 14028S) [µg/mL]	MIC P. aeruginosa H374 (P. aeruginosa H374)	MIC P. aeruginosa H187 [1]	MIC C. albicans 105 (Candida albicans 105)
FALKALKKAL-NH2 [P170 (131)]	0.128	> 128	64	> 128	>128	>128	128
FAKKLAKALL-NH2 [P58 (38)]	>128	> 128	> 128	> 128	>128	>128	64
FGKGIGKVGKKLL-NH2 [P132 (94)]	>128	> 128	128	> 128	>128	>128	128
FAKLLAKLAKKAA-NH2 [P93 (59)]	>128	> 128	128	> 128	128	>128	64
KAKLF-NH2 [P130 (92)]	>128	> 128	> 128	> 128	>128	>128	>128
FAKLAKKALAKLL-NH2 [P148 (110)]	>128	128	128	> 128	>128	>128	128
FAKLWAKLAKKL-NH2 [P136 (98)]	>128	128	128	> 128	>128	>128	64
FAKLLAKLAKAKG-NH2 [P96 (62)]	>128	> 128	> 128	> 128	>128	>128	>128
FAKLLAKLAK-NH2 [P123 (85)]	>128	16	64	> 128	>128	>128	64
FAKLLAKLAKKFAL-NH2 [P120 (82)]	>128	> 128	> 128	> 128	128	>128	64
FALLKALKKAL-NH2 [P171 (132)]	>128	128	32	> 128	>128	>128	>128
KWKLAKKALALL-NH2 [P142 (104)]	>128	128	64	128	>128	>128	64
FALLKL-NH2 [P168 (129)]	>128	128	128	> 128	128	128	128
FALAKALKKAL-NH2 [P166 (127)]	>128	> 128	> 128	> 128	>128	>128	>128
KFKKLAKKW-NH2 [P175 (136)]	>128	> 128	> 128	> 128	>128	>128	>128
FAFGKGIGKVGKKLL-NH2 [P133 (95)]	>128	> 128	> 128	> 128	>128	>128	>128
KAKLAKKALAKLL-NH2 [P149 (111)]	>128	> 128	32	> 128	128	>128	128
FAKLLFKALKKAL-NH2 [P112 (76)]	>128	64	> 128	> 128	>128	>128	128
FAKGVGKVGKKAL-NH2 [P137 (99)]	>128	> 128	> 128	> 128	>128	>128	>128
FAKLLAKKLL-NH2 [P57 (37)]	>128	> 128	> 128	> 128	>128	>128	128
FAKLLAKLAKAKL-NH2 [P65 (44)]	>128	> 128	128	> 128	64	>128	64
FAKLLAKAFKKAL-NH2 [P114 (78)]	>128	64	32	128	>128	>128	64
MPKEKVFLKIEKMGRNIRN-NH2 [P107 (71)]	>128	> 128	> 128	> 128	>128	>128	>128
FAKLA-NH2 [P128 (90)]	>128	128	128	> 128	>128	>128	128
FAKAIAKIAFGKGIGKVGKKLL-NH2 [P134 (96)]	>128	128	128	> 128	128	>128	64
FAFAKIIAKIAKKII-NH2 [P140 (102)]	>128	> 128	> 128	> 128	>128	>128	>128
KWKLF-NH2 [P131 (93)]	>128	> 128	> 128	> 128	>128	>128	>128
